Earlier results on 15 molecules are cited in patent US20230240327A1, “FUNCTIONAL SOYBEAN MEAL” (CAN TECHNOLOGIES, INC., priority 2020, published 2023).

One data set relates to Bacteria. Particulars: when in their dissociated form.
The conditions of data set [1]: Table 7.
The test system of another data set is microorganisms. The note with it: according to several studies; compared with antibiotics.

Each structure is given as a SMILES string. Where two headings read alike, the source gives them in different places.

On to `O=C(O)c1ccccc1` [Benzoic acid], for which the Main effects entry in the data set with poultry (0.20 wt% of feed) was “Positive influence on growth”.

For `CCCC(=O)O` [Butyric acid], in the data set on poultry (0.15 wt% of feed (butyric acid)), the Main effects result is recorded as “Maintain the beneficial micro flora”.

As for `O=CO` [Formic acid], in the data set on poultry (0.50 - 1.00 wt% of feed (formic acid)), the Main effects entry is “Reduction of coecal pH and bactericidal effect on Salmonella”. For the same molecule, in the data set on Bacteria, the bactericidal effect result is given as “bactericidal effect”.

In the case of `O=C(O)/C=C/C(=O)O` [Fumaric acid], in the data set with poultry (0.50 - 1.00 wt% of feed (fumaric acid)), the Main effects entry is reported as “Improvement in weight gain of broilers”.

Consider `CC(O)C(=O)O` (stereo not drawn) [Lactic acid], for which, in the data set on poultry (2.00 wt% of feed), the Main effects entry was “Feed to gain ratio significantly improved. Body weight gain”. For the same molecule, the bactericidal effect entry in the data set on Bacteria is on record as “bactericidal effect”.

`CCCCCCCCCCCC(=O)O` [Lauric acid]: the pKa (as a rule, the pH at which an ionisable group is half protonated) in data set [1] is on record as 5.13.

For the molecule `O=C(O)CC(O)C(=O)O` (stereo not drawn) [Malic acid], in the data set on poultry (0.50 - 2.00 wt% of feed), the Main effects result was “Increase in weight gain”.

In the case of `CCC(=O)O` [Propionic acid (buffered), Propionic acid], the Main effects result in the data set with poultry (0.15 - 0.20 wt% of feed (buffered propionic acid)) is reported as “Increase in dressing percentage in female broilers”.

On to `CCC(=O)O` [Propionic acid], for which, in the data set with Bacteria, the bactericidal effect result was “bactericidal effect”.

Regarding `C/C=C/C=C/C(=O)O` [Sorbic acid], in the data set with poultry (1.12 wt% of feed), the Main effects entry is “Improves feed efficiency”. In the data set with Bacteria, the bactericidal effect entry is “bactericidal effect”.

As to `O=C(O)C(O)C(O)C(=O)O` (stereo not drawn) [Tartaric acid], the Main effects entry in the data set on poultry (0.33 wt% of feed) is reported as “Improves weight gain”.

As for `Cc1ccc(C(C)C)cc1O` [carvacrol], the antimicrobial activity result in the data set with microorganisms was “stronger than in some antibiotics”.

On to `C=CCc1ccc(O)c(OC)c1` [eugenol], for which the antimicrobial activity entry with microorganisms is listed as “stronger than in some antibiotics”.

Consider `CC(C)=CCC/C(C)=C/CO` [geraniol], for which the antimicrobial activity result in the data set with microorganisms was “stronger than in some antibiotics”.

`Cc1ccc(C(C)C)c(O)c1` [thymol]: in the data set with microorganisms, the antimicrobial activity result is listed as “stronger than in some antibiotics”.
